From publication PMC11651915, “Small molecule protein assembly modulators with pan-cancer therapeutic efficacy” (Open Biology, 2024)

Experiments:
LNCaP C-33 = assay: In-house cancer cell viability screen (AlamarBlue); type: cell-based; conditions: Homo sapiens, LnCAP-C33, 72 h
PANC-1 = assay: In-house cancer cell viability screen (AlamarBlue); type: cell-based; conditions: Homo sapiens, 72 h
A172 = assay: Eurofins OncoPanel (CellTiter-Glo); type: cell-based; conditions: Homo sapiens, A 172, 72 h, 3 days
DB = assay: Eurofins OncoPanel (CellTiter-Glo); type: cell-based; conditions: Homo sapiens, 72 h, 3 days
MDA MB 436 = assay: Eurofins OncoPanel (CellTiter-Glo); type: cell-based; conditions: Homo sapiens, 72 h, 3 days
SU-DHL-10 = assay: Eurofins OncoPanel (CellTiter-Glo); type: cell-based; conditions: Homo sapiens, SU-DHL10, 72 h, 3 days
CCRF-CEM = assay: cells; type: cell-based; conditions: Homo sapiens, NCI-60, 48 h
MOLT-4 = assay: cells; type: cell-based; conditions: Homo sapiens, NCI-60, 48 h
A549/ATCC = assay: cells; type: cell-based; conditions: Homo sapiens, NCI-60, 48 h
NCI-H460 = assay: cells; type: cell-based; conditions: Homo sapiens, NCI-60, 48 h
COLO 205 = assay: cells; type: cell-based; conditions: Homo sapiens, NCI-60, 48 h
HCT-116 = assay: cells; type: cell-based; conditions: Homo sapiens, NCI-60, 48 h
HT29 = assay: cells; type: cell-based; conditions: Homo sapiens, HT-29, NCI-60, 48 h
SW-620 = assay: cells; type: cell-based; conditions: Homo sapiens, NCI-60, 48 h
MALME-3M = assay: cells; type: cell-based; conditions: Homo sapiens, NCI-60, 48 h
M14 = assay: cells; type: cell-based; conditions: Homo sapiens, NCI-60, 48 h
MDA-MB-435 = assay: cells; type: cell-based; conditions: Homo sapiens, NCI-60, 48 h
786-0 = assay: cells; type: cell-based; conditions: Homo sapiens, NCI-60, 48 h
CAKI-1 = assay: cells; type: cell-based; conditions: Homo sapiens, NCI-60, 48 h
[1] = system: BB5 patient biopsy derived cell line (breast adenocarcinoma); assay: BB1 and BB5 adenoma versus carcinoma screen (confocal imaging); type: cell-based; conditions: Homo sapiens, 60 h, percent ChromaLive negative
[2] = system: HT-29 colorectal cancer xenograft; assay: HT-29 xenograft study; type: in vivo, mouse; conditions: 17 days, PAV-951 3 mg kg^−1 IV, Irinotecan 60 mg kg^−1 IP
Protocol: In the second animal efficacy study, human HT-29 colorectal adenocarcinoma cells were grafted subcutaneously onto mice. After tumour establishment, the animals received treatment with vehicle, 3 mg kg^−1 PAV-951 or 60 mg kg^−1 of a positive control drug Irinotecan. […]. Survival was not assessed as part of the study.
HT-29 cells growing in HBSS medium were suspended in Matrigel. 0.1 ml of the cell suspension containing 5 × 10^6 cells were injected subcutaneously into the left flank region of male, 6–8 week old SCID mice. After tumour establishment, animals were divided randomly into groups of six and treated daily by IV with vehicle daily for 17 days, 3 mg kg^−1 PAV-951 three times per week for 17 days, or treated by IP with 60 mg kg^−1 Irinotecan every 4 days for 14 days. Tumour volume was calculated using the formula: (L × W2)/2 where L is the largest diameter and W is the smallest diameter of the tumour. Statistical analysis was performed using GraphPad Prism (Ver. 5.03). Statistical analysis of tumour growth inhibition between the Control and Treated groups was performed by using ne-way ANOVA followed by Dunnett’s test.

LNCaP C-33 cells = assay: Cell growth recovery assay; type: cell-based, human; conditions: PAV-617 0.3 µM 24 h, PAV-951 0.4 µM 6 h, followed
A549 and MRC-5 cells = assay: Toxicity to A549 cancer line versus non-cancer MRC-5 cells; type: cell-based
EKVX = assay: cells; conditions: Homo sapiens, 48 h
HCC-2998 = assay: cells; conditions: Homo sapiens, HCC 2998, 48 h
HCT-15 = assay: cells; conditions: Homo sapiens, HCT-15, 48 h
SNB-75 = assay: cells; conditions: Homo sapiens, SNB-75, 48 h
U251 = assay: cells; conditions: Homo sapiens, U-251, 48 h
UACC-62 = assay: cells; conditions: Homo sapiens, UACC-62, 48 h
OVCAR-4 = assay: cells; conditions: Homo sapiens, OVCAR-4, 48 h
OVCAR-8 = assay: cells; conditions: Homo sapiens, OVCAR-8, 48 h
NCI/ADR-RES = assay: cells; conditions: Homo sapiens, 48 h
A498 = assay: cells; conditions: Homo sapiens, A498, 48 h
RXF 393 = assay: cells; conditions: Homo sapiens, RXF 393, 48 h
SN12C = assay: cells; conditions: Homo sapiens, 48 h
MCF7 = assay: cells; conditions: Homo sapiens, MCF7, 48 h
MDA-MB-468 = assay: cells; conditions: Homo sapiens, MDA-MB-468, 48 h
MeWo = assay: Eurofins OncoPanel (CellTiter-Glo); conditions: Homo sapiens, 72 h

CC(C)CCNc1ncnc2cc(N3CCN(c4ccc5c(NCCC(C)C)ncnc5c4)CC3)ccc12 [PAV-951]
IC50 (LNCaP C-33): 542 nM
IC50 (PANC-1): 244 nM
IC50 (A172): 1020 nM
IC50 (DB): 895 nM
IC50 (MDA MB 436): 1460 nM
IC50 (SU-DHL-10): 231 nM
GI50 (CCRF-CEM): 198 nM
GI50 (MOLT-4): 223 nM
GI50 (A549/ATCC): 302 nM
GI50 (NCI-H460): 203 nM
GI50 (COLO 205): 610 nM
GI50 (HCT-116): 185 nM
GI50 (HT29): 345 nM
GI50 (SW-620): 194 nM
GI50 (MALME-3M): 1520 nM
GI50 (M14): 533 nM
GI50 (MDA-MB-435): 273 nM
GI50 (786-0): 339 nM
GI50 (CAKI-1): 311 nM
IC50 [1]: 500 nM
tumour growth inhibition (TGI) [2]: 52%
recovery of cell growth after removal of compound (LNCaP C-33 cells): did not recover
toxicity to A549 cancer line compared with non-cancer MRC-5 cells (A549 and MRC-5 cells): selectively toxic to the A549 cancer line
GI50 (EKVX): 1750 nM
CC50 (EKVX; read-out: LC50): 6120 nM
GI50 (HCC-2998): 967 nM
CC50 (HCC-2998; read-out: LC50): 5130 nM
GI50 (HCT-15): 173 nM
CC50 (HCT-15; read-out: LC50): 815 nM
GI50 (SNB-75): 304 nM
CC50 (SNB-75; read-out: LC50): 4140 nM
GI50 (U251): 213 nM
CC50 (U251; read-out: LC50): 910 nM
GI50 (UACC-62): 1380 nM
CC50 (UACC-62; read-out: LC50): 5610 nM
GI50 (OVCAR-4): 452 nM
CC50 (OVCAR-4; read-out: LC50): 4560 nM
GI50 (OVCAR-8): 521 nM
CC50 (OVCAR-8; read-out: LC50): 5180 nM
GI50 (NCI/ADR-RES): 401 nM
CC50 (NCI/ADR-RES; read-out: LC50): 4850 nM
GI50 (A498): 1860 nM
CC50 (A498; read-out: LC50): 5920 nM
GI50 (RXF 393): 448 nM
GI50 (SN12C): 280 nM
CC50 (SN12C; read-out: LC50): 3410 nM
GI50 (MCF7): 177 nM
CC50 (MCF7; read-out: LC50): 924 nM
GI50 (MDA-MB-468): 1470 nM
CC50 (MDA-MB-468; read-out: LC50): 5610 nM
IC50 (MeWo): 1180 nM
